Source: ChEMBL document CHEMBL6120970, “Discovery and Functional Characterization of a Potent, Selective, and Metabolically Stable PROTAC of the Protein Kinases DYRK1A and DYRK1B” (J Med Chem, 2024)
Converted amounts (≈) assume the structure as drawn. The source made the active and inactive calls. No cut-off for these calls is given here.

Legend:
[1] = biological target: T1, Protein cereblon/Dual specificity tyrosine-phosphorylation-regulated kinase 1A (Homo sapiens, UniProt Q13627+Q96SW2); assay: Competitive binding affinity to CRBN/DYRK1A (unknown origin) assessed as dissociation constant; assay type: protein assay
[2] = biological target: T2, Protein cereblon/Dual specificity tyrosine-phosphorylation-regulated kinase 1B (Homo sapiens) (UniProt Q9Y463+Q96SW2); assay: PROTAC activity at CRBN/HibiT-tagged DYRK1B in Flp-In-T-REx-293 cells assessed as induction of degradation of DYRK1B by measuring maximum efficacy at 1 uM measured after 24 hrs by NanoBiT luciferase assay relative to control; assay type: cell-based
[3] = biological target: T1, Protein cereblon/Dual specificity tyrosine-phosphorylation-regulated kinase 1A; assay: PROTAC activity at CRBN/HibiT-tagged DYRK1A in Flp-In-T-REx-293 cells assessed as induction of degradation of DYRK1A at 100 to 300 nM by measured after 24 hrs by NanoBiT luciferase assay; assay type: cell-based; conditions: dose 100-300 nM
[4] = biological target: T1, Protein cereblon/Dual specificity tyrosine-phosphorylation-regulated kinase 1A; assay: PROTAC activity at CRBN/DYRK1A in HEK293 cells assessed as induction of degradation of DYRK1A by measuring maximum efficacy at 1 to 10000 nM incubated for 24 hrs relative to control; assay type: cell-based; conditions: dose 1-10000 nM
[5] = biological target: T2, Protein cereblon/Dual specificity tyrosine-phosphorylation-regulated kinase 1B (Homo sapiens); assay: PROTAC activity at CRBN/DYRK1B in HEK293 cells assessed as induction of degradation of DYRK1B by measuring maximum efficacy at 1 to 10000 nM incubated for 24 hrs relative to control; assay type: cell-based; conditions: dose 1-10000 nM
[6] = biological target: T1, Protein cereblon/Dual specificity tyrosine-phosphorylation-regulated kinase 1A; assay: PROTAC activity at CRBN/DYRK1A in HEK293 cells assessed as induction of degradation of DYRK1A at 100 nM measured for 48 hrs by Western blot analysis; assay type: cell-based
[7] = biological target: T2, Protein cereblon/Dual specificity tyrosine-phosphorylation-regulated kinase 1B (Homo sapiens); assay: PROTAC activity at CRBN/DYRK1B in HEK293 cells overexpressing DYRK1B p65 assessed as induction of degradation of DYRK1B at 1 uM measured after 24 hrs by Western blot analysis; assay type: cell-based
[8] = biological target: T1, Protein cereblon/Dual specificity tyrosine-phosphorylation-regulated kinase 1A; assay: PROTAC activity at CRBN/HibiT-tagged DYRK1A in HEK293 cells assessed as induction of degradation of DYRK1A at 1 uM measured after 24 hrs by Western blot analysis; assay type: cell-based
[9] = biological target: T2, Protein cereblon/Dual specificity tyrosine-phosphorylation-regulated kinase 1B (Homo sapiens); assay: PROTAC activity at CRBN/DYRK1B in HEK293 cells overexpressing DYRK1B-p69 assessed as induction of degradation of DYRK1B at 1 uM measured after 24 hrs by Western blot analysis; assay type: cell-based
[10] = biological target: T1, Protein cereblon/Dual specificity tyrosine-phosphorylation-regulated kinase 1A; assay: PROTAC activity at CRBN/DYRK1A in HEK293 cells assessed as induction of degradation of DYRK1A at 100 nM incubated for 24 hrs; assay type: cell-based
[11] = biological target: T1, Protein cereblon/Dual specificity tyrosine-phosphorylation-regulated kinase 1A; assay: PROTAC activity at CRBN/DYRK1A in HEK293 cells assessed as induction of degradation of DYRK1A at 100 nM pretreated with leucettine-41 followed by compound addition and incubated for 8 hrs; assay type: cell-based
[12] = biological target: T2, Protein cereblon/Dual specificity tyrosine-phosphorylation-regulated kinase 1B (Homo sapiens); assay: PROTAC activity at CRBN/DYRK1B in HEK293 cells assessed as induction of degradation of DYRK1B at 100 nM pretreated with leucettine-41 followed by compound addition and incubated for 8 hrs; assay type: cell-based
[13] = biological target: T1, Protein cereblon/Dual specificity tyrosine-phosphorylation-regulated kinase 1A; assay: PROTAC activity at CRBN/DYRK1A in HEK293 cells assessed as induction of degradation of DYRK1A at 100 nM pretreated with CB-5083 followed by compound addition and incubated for 8 hrs; assay type: cell-based
[14] = biological target: T2, Protein cereblon/Dual specificity tyrosine-phosphorylation-regulated kinase 1B (Homo sapiens); assay: PROTAC activity at CRBN/DYRK1B in HEK293 cells assessed as induction of degradation of DYRK1B at 100 nM pretreated with bortezomib followed by compound addition and incubated for 8 hrs; assay type: cell-based
[15] = biological target: T2, Protein cereblon/Dual specificity tyrosine-phosphorylation-regulated kinase 1B (Homo sapiens); assay: PROTAC activity at CRBN/DYRK1B in Flp-In-T-REx-293 cells overexpressing GFP-DYRK1B assessed as initial rate of degradation at 1 uM measured upto 6 hrs by fluorescence based phase contrast microscopy analysis; assay type: cell-based
[16] = biological target: T2, Protein cereblon/Dual specificity tyrosine-phosphorylation-regulated kinase 1B (Homo sapiens); assay: PROTAC activity at CRBN/DYRK1B in Flp-In-T-REx-293 cells overexpressing GFP-DYRK1B assessed as half life at 1 uM measured upto 6 hrs by fluorescence based phase contrast microscopy analysis; assay type: cell-based
[17] = biological target: T1, Protein cereblon/Dual specificity tyrosine-phosphorylation-regulated kinase 1A; assay: PROTAC activity at CRBN/DYRK1A in human PANC-1 cells assessed as induction of degradation of DYRK1A at 100 nM incubated for 8 hrs; assay type: cell-based
[18] = biological target: T1, Protein cereblon/Dual specificity tyrosine-phosphorylation-regulated kinase 1A; assay: PROTAC activity at CRBN/DYRK1A in human HeLa cells assessed as induction of degradation of DYRK1A at 100 nM incubated for 8 hrs; assay type: cell-based
[19] = biological target: T1, Protein cereblon/Dual specificity tyrosine-phosphorylation-regulated kinase 1A; assay: PROTAC activity at CRBN/DYRK1A in human OVCAR-3 cells assessed as induction of degradation of DYRK1A at 100 nM incubated for 8 hrs; assay type: cell-based
[20] = biological target: T1, Protein cereblon/Dual specificity tyrosine-phosphorylation-regulated kinase 1A; assay: PROTAC activity at CRBN/DYRK1A in HEK293 cells expressing GFP-SF3B1 assessed as inhibition of SF3B1 phosphorylation at 10 nM measured for 48 hrs by Western blot analysis; assay type: cell-based
[21] = biological target: T1, Protein cereblon/Dual specificity tyrosine-phosphorylation-regulated kinase 1A; assay: PROTAC activity at CRBN/DYRK1A in SH-SY5Y cells assessed as induction of degradation of DYRK1A at 100 nM incubated for 24 hrs; assay type: cell-based
[22] = biological target: T2, Protein cereblon/Dual specificity tyrosine-phosphorylation-regulated kinase 1B (Homo sapiens); assay: PROTAC activity at CRBN/DYRK1B in SH-SY5Y cells assessed as induction of degradation of DYRK1B at 100 nM incubated for 24 hrs; assay type: cell-based
[23] = Solubility of the compound in PBS buffer; assay type: physicochemical
[24] = Solubility of the compound in FeSSIF buffer; assay type: physicochemical
[25] = Metabolic stability in mouse liver microsomes assessed as half life; assay type: ADME, Microsome
[26] = Metabolic stability in rat liver microsomes assessed as half life; assay type: ADME, Microsome
[27] = Metabolic stability in human liver microsomes assessed as half life; assay type: ADME, Microsome
[28] = Metabolic stability in mouse liver microsomes assessed as intrinsic clearance; assay type: ADME, Microsome; conditions: read-out: CLH
[29] = Half life in mouse blood; assay type: ADME, tissue-based
[30] = Permeability of the compound by PAMPA method; assay type: ADME; conditions: read-out: permeability
[31] = Plasma protein binding (unknown origin); assay type: ADME, cell-free; conditions: read-out: PPB
[32] = Volume of distribution at steady state in mouse at 1 mg/kg, iv administered as single dose; assay type: ADME, organism-based; conditions: in vivo, read-out: Vdss
[33] = Half life in mouse at 1 mg/kg, iv administered as single dose; assay type: ADME, organism-based; conditions: in vivo
[34] = AUClast in mouse at 1 mg/kg, iv administered as single dose; assay type: ADME, organism-based; conditions: in vivo
[35] = MRT in mouse at 1 mg/kg, iv administered as single dose; assay type: ADME, organism-based; conditions: in vivo
[36] = Tmax in mouse at 10 mg/kg, ip administered as single dose; assay type: ADME, organism-based; conditions: in vivo
[37] = Half life in mouse at 10 mg/kg, ip administered as single dose; assay type: ADME, organism-based; conditions: in vivo
[38] = AUC last in mouse at 10 mg/kg, ip administered as single dose; assay type: ADME, organism-based; conditions: in vivo
[39] = AUC infinity in mouse at 10 mg/kg, ip administered as single dose; assay type: ADME, organism-based; conditions: in vivo
[40] = Half life in mouse at 10 mg/kg, po administered as single dose; assay type: ADME, organism-based; conditions: in vivo
[41] = AUC last in mouse at 10 mg/kg, po administered as single dose; assay type: ADME, organism-based; conditions: in vivo

Cc1nc2ccc(-c3ccnc(N)c3)nc2n1-c1ccc(N2CCN(CC#Cc3ccc(N4CCC(C(=O)N5CCC(n6cc(CNc7cccc8c7C(=O)N(C7CCC(=O)NC7=O)C8=O)cn6)CC5)CC4)nc3)CC2)c(F)c1 (stereo unspecified)
Kd [1]: 6.3 nM | Emax [2]: 66% | Activity [3]: Active | Emax [4]: 90% | Emax [5]: 50% | Activity [6]: Active | Activity [7]: inactive | Activity [8]: Active | Activity [9]: Active | Activity [10]: Active | Activity [11]: inactive | Activity [12]: inactive | Activity [13]: inactive | Activity [14]: inactive | Activity [15]: 1.16 h⁻¹ | T1/2 [16]: 0.6 h | Activity [17]: Active; Compound Showed Partial Degradation | Activity [18]: inactive | Activity [19]: inactive | Activity [20]: Active | Activity [21]: Active | Activity [22]: Active | solubility [23]: < 0.009 µM | solubility [24]: 2.09 µM (≈ 2.22 µg/mL) | half-life [25]: 7.38 h | half-life [26]: 1.64 h | half-life [27]: 2.28 h | CLint scaled [28]: 3.1 mL/min/kg | half-life [29]: 15.2 h | Papp [30]: < 0.005 ×10⁻⁶ cm/s | fraction unbound [31]: < 0.0062 | Vd [32]: 0.614 L/kg | half-life [33]: 3.33 h | AUC(0-t) [34]: 2460 ng·h/mL | MRT [35]: 1.4 h | Tmax [36]: 0.25 h | half-life [37]: 4.75 h | AUC(0-t) [38]: 26300 ng·h/mL | AUC(0-inf) [39]: 27100 ng·h/mL | half-life [40]: 2.11 h | AUC(0-t) [41]: 56 ng·h/mL
